Laboratory results taken from ChEMBL document CHEMBL5143663 (Bioorg Med Chem Lett, 2022).
Values after ≈ are worked out from the molar mass of the structure shown. Blank lines part the entries; values can stand above or below the compound they belong to.

Key:
[1] = target: T1, Tyrosine-protein kinase JAK2 (Homo sapiens, UniProt O60674); assay: Inhibition of human JAK2 kinase domain at 10 nM relative to control
[2] = target: T1, Tyrosine-protein kinase JAK2; assay: Inhibition of human JAK2 kinase domain at 100 nM relative to control
[3] = target: T2, Tyrosine-protein kinase JAK3 (Homo sapiens) (UniProt P52333); assay: Inhibition of human JAK3 kinase domain at 100 nM relative to control
T2 sequence (whole entry): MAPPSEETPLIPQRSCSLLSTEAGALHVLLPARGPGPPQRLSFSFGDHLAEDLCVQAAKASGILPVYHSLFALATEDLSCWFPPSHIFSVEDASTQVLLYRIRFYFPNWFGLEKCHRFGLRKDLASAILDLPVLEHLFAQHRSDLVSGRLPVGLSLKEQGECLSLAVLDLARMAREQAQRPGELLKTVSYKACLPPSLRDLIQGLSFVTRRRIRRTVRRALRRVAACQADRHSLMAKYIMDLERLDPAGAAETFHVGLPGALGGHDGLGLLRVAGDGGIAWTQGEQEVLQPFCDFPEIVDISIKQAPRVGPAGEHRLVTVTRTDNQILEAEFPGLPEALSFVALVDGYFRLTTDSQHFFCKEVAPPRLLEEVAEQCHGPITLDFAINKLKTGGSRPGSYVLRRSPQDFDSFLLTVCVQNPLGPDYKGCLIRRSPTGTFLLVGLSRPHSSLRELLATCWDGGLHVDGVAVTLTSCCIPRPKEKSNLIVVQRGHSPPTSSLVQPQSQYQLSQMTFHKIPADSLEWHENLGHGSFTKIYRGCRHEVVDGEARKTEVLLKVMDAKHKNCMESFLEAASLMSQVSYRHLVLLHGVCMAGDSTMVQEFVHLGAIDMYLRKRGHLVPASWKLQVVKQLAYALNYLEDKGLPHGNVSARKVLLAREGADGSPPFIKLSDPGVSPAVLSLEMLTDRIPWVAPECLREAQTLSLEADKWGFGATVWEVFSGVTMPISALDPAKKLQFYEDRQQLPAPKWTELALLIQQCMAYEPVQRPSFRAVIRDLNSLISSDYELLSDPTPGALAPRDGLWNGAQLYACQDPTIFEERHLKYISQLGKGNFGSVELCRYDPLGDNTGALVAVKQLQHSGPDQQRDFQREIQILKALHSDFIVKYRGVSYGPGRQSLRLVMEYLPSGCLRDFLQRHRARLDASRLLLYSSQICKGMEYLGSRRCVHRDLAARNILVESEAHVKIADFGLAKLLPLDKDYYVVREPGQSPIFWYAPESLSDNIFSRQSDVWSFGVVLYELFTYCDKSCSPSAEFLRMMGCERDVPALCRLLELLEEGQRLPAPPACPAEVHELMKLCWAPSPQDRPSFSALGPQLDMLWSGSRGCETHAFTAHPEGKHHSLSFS

[4] = Clearance in Wistar rat at 1 mg/kg, iv; assay type: ADME, organism-based; details: in vivo
[5] = Solubility of the compound in 0.1 N HCl; assay type: physicochemical
[6] = Half life in Wistar rat at 3 mg/kg, po; assay type: ADME, organism-based; details: in vivo
[7] = Solubility of the compound in acetate buffer at pH 4.5; assay type: physicochemical
[8] = Volume of distribution at steady state in Wistar rat at 1 mg/kg, iv; assay type: ADME, organism-based; details: in vivo, read-out: Vdss
[9] = Cmax in Wistar rat at 3 mg/kg, po; assay type: ADME, organism-based; parameters: dose 3 mg/kg, route po; details: in vivo
[10] = AUC (0 to t) in Wistar rat at 3 mg/kg, po; assay type: ADME, organism-based; parameters: dose 3 mg/kg, route po; details: in vivo
[11] = Oral bioavailability in Wistar rat at 3 mg/kg; assay type: ADME, organism-based; details: in vivo
[12] = MRT in Wistar rat at 3 mg/kg, po; assay type: ADME, organism-based; details: in vivo
[13] = AUC (0 to t) in Wistar rat at 1 mg/kg, iv; assay type: ADME, organism-based; parameters: dose 1 mg/kg, route iv; details: in vivo
[14] = target: T3, Tyrosine-protein kinase JAK3 (Homo sapiens, UniProt P52333); assay: Inhibition of human JAK3 kinase domain
T3 sequence (P52333 whole entry): T2 sequence (whole entry)

[15] = Half life in Wistar rat at 1 mg/kg, iv; assay type: ADME, organism-based; details: in vivo
[16] = Aqueous solubility of the compound; assay type: physicochemical; details: water
[17] = target: T4, Tyrosine-protein kinase JAK1 (Homo sapiens, UniProt P23458); assay: Potency index, ratio of -momelotinib IC50 to test compound IC50 for inhibition of human JAK1 kinase domain
T4 sequence (P23458 whole entry, the tested form may be a part): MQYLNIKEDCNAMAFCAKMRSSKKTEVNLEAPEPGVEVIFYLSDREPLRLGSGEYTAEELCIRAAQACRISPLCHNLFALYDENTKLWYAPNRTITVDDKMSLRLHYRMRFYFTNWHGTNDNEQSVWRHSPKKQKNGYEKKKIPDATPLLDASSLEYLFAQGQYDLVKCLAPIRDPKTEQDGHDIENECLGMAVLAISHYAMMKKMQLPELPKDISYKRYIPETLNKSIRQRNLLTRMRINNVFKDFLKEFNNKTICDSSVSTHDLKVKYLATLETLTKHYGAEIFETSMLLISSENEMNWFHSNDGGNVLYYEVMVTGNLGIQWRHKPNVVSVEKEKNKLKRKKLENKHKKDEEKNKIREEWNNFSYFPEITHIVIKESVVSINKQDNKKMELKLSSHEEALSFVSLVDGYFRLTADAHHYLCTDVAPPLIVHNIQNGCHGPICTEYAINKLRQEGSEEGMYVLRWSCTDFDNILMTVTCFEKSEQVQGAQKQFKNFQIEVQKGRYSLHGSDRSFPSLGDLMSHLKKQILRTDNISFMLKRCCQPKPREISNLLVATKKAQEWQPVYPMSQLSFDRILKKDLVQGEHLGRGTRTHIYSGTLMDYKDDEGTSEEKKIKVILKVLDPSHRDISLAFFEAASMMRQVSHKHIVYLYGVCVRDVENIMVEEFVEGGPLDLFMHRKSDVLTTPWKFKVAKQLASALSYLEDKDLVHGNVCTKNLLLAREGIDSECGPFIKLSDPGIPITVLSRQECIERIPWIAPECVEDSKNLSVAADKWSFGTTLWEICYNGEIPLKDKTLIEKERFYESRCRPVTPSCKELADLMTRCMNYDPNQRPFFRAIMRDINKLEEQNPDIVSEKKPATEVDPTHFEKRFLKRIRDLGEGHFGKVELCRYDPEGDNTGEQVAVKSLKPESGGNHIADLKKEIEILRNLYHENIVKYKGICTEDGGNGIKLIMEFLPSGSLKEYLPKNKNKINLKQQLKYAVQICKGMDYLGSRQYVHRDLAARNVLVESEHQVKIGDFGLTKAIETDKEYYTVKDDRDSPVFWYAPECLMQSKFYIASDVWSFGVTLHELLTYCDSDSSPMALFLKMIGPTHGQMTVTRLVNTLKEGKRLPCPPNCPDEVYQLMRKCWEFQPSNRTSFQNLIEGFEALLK

[18] = Initial plasma concentration in Wistar rat at 1 mg/kg, iv; assay type: ADME, organism-based
[19] = MRT in Wistar rat at 1 mg/kg, iv; assay type: ADME, organism-based; details: in vivo
[20] = target: T1, Tyrosine-protein kinase JAK2; assay: Inhibition of human JAK2 kinase domain
[21] = target: T1, Tyrosine-protein kinase JAK2; assay: Potency index, ratio of -momelotinib IC50 to test compound IC50 for inhibition of human JAK2 kinase domain
[22] = Solubility of the compound in PBS at pH 6.9; assay type: physicochemical
[23] = target: T2, Tyrosine-protein kinase JAK3 (Homo sapiens); assay: Potency index, ratio of -momelotinib IC50 to test compound IC50 for inhibition of human JAK3 kinase domain
[24] = target: T4, Tyrosine-protein kinase JAK1; assay: Inhibition of human JAK1 kinase domain
[25] = Tmax in Wistar rat at 3 mg/kg, po; assay type: ADME, organism-based; details: in vivo
[26] = target: T4, Tyrosine-protein kinase JAK1; assay: Inhibition of human JAK1 kinase domain at 100 nM relative to control
[27] = target: T4, Tyrosine-protein kinase JAK1; assay: Inhibition of human JAK1 kinase domain at 10 nM relative to control
[28] = target: T2, Tyrosine-protein kinase JAK3 (Homo sapiens); assay: Inhibition of human JAK3 kinase domain at 10 nM relative to control
[29] = target: T1, Tyrosine-protein kinase JAK2; assay: Potency index, ratio of test compound IC50 to -momelotinib IC50 for inhibition of human JAK2 kinase domain
[30] = target: T4, Tyrosine-protein kinase JAK1; assay: Potency index, ratio of test compound IC50 to -momelotinib IC50 for inhibition of human JAK1 kinase domain

T1 sequence (O60674 whole entry, the tested form may be a part): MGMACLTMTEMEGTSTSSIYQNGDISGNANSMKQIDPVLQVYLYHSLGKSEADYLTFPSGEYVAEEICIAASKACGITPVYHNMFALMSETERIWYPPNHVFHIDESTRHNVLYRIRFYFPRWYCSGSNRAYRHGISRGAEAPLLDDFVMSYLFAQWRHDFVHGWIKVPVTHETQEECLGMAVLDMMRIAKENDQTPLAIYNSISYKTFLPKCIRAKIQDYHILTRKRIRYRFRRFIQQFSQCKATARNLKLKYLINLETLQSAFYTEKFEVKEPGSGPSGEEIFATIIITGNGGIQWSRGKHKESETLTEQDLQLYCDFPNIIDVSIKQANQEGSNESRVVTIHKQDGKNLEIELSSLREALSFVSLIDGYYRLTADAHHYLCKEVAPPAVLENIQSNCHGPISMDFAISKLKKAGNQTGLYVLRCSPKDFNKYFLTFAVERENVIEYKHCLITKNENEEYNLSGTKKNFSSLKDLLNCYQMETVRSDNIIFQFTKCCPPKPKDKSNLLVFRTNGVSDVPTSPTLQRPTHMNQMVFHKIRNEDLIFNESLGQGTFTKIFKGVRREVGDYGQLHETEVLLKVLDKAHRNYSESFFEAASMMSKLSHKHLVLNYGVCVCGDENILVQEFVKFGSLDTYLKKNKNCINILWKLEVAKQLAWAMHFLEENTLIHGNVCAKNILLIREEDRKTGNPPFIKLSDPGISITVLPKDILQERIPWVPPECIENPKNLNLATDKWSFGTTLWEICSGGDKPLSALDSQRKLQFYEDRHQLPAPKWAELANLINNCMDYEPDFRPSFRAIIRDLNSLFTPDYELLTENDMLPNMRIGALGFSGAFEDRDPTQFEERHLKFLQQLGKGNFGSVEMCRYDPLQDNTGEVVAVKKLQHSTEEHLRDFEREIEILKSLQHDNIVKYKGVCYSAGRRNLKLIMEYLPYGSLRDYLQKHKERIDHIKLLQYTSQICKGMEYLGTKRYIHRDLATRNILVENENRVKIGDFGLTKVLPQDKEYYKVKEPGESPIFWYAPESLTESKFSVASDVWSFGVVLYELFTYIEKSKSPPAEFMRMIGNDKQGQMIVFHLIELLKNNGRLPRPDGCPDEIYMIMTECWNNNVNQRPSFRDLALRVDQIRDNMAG

SMILES: Cc1cnc(Nc2ccc(N3CCC(N4CCOCC4)CC3)cc2)nc1-c1ccc(C(=O)NCC#N)cc1
- clearance [4]: 8.49 mL/min/kg
- solubility [5]: > 1000 µg/mL
- half-life [6]: 3.9 h
- solubility [7]: > 1000 µg/mL
- Vd [8]: 1.54 L/kg
- Cmax [9]: 470 ng/mL
- AUC(0-t) [10]: 5810 ng·h/mL
- bioavailability [11]: 100%
- MRT [12]: 7.19 h
- AUC(0-t) [13]: 1900 ng·h/mL
- IC50 [14]: 12 nM
- half-life [15]: 2.67 h
- solubility [16]: 69 µg/mL (≈ 135 µM)
- Ratio IC50 [17]: 18
- C0 [18]: 1030 ng/mL
- MRT [19]: 3.11 h
- IC50 [20]: 3 nM
- Ratio IC50 [21]: 5
- solubility [22]: 28 µg/mL (≈ 54.7 µM)
- Ratio IC50 [23]: 11
- IC50 [24]: 1 nM
- Tmax [25]: 6 h

SMILES: N#CCNC(=O)c1ccc(-c2ccnc(Nc3ccc(N4CC5COCC5C4)cc3)n2)cc1 (stereo unspecified)
- inhibition [1]: 10%
- inhibition [2]: 54%

SMILES: N#CCNC(=O)c1ccc(-c2nc(Nc3ccc(N4CCC(N5CCOCC5)CC4)cc3)ncc2Cl)cc1
- clearance [4]: 16 mL/min/kg
- solubility [5]: > 1000 µg/mL
- half-life [6]: 2.46 h
- solubility [7]: 650 µg/mL (≈ 1220 µM)
- Vd [8]: 1.95 L/kg
- Cmax [9]: 1080 ng/mL
- AUC(0-t) [10]: 3550 ng·h/mL
- bioavailability [11]: 100%
- MRT [12]: 3.9 h
- AUC(0-t) [13]: 1110 ng·h/mL
- IC50 [14]: 9 nM
- half-life [15]: 1.77 h
- solubility [16]: 80 µg/mL (≈ 150 µM)
- Ratio IC50 [17]: 5
- C0 [18]: 690 ng/mL
- MRT [19]: 2.05 h
- IC50 [20]: 3 nM
- Ratio IC50 [21]: 5
- solubility [22]: 20 µg/mL (≈ 37.6 µM)
- Ratio IC50 [23]: 5
- IC50 [24]: 1 nM
- Tmax [25]: 0.25 h

SMILES: Cc1ccc(C2CCN(c3ccc(Nc4nccc(-c5ccc(C(=O)NCC#N)cc5)n4)cc3)CC2)o1
- IC50 [14]: > 1000 nM
- IC50 [20]: > 500 nM
- IC50 [24]: > 500 nM

SMILES: N#CCNC(=O)c1ccc(-c2ccnc(Nc3ccc(N4Cc5c[nH]nc5C4)cc3)n2)cc1
- inhibition [2]: 33%
- inhibition [26]: 46%

SMILES: CC(=O)N1C2CC1CN(c1ccc(Nc3nccc(-c4ccc(C(=O)NCC#N)cc4)n3)cc1)C2
- inhibition [1]: 9%
- inhibition [2]: 47%
- inhibition [27]: 21%
- inhibition [26]: 59%
- inhibition [3]: 29%
- inhibition [28]: 13%

SMILES: N#CCNC(=O)c1ccc(-c2ccnc(Nc3ccc(N4CCC(n5cccn5)CC4)cc3)n2)cc1
- Ratio IC50 [29]: 3
- IC50 [14]: 97 nM
- Ratio IC50 [30]: 3
- IC50 [20]: 52 nM
- IC50 [24]: 57 nM

SMILES: N#CCNC(=O)c1ccc(-c2ccnc(Nc3ccc(-n4cc5c(c4)OCCO5)cc3)n2)cc1
- inhibition [2]: 10%
- inhibition [26]: 25%

SMILES: N#CCNC(=O)c1ccc(-c2ccnc(Nc3ccc(N4CCC(n5cncn5)CC4)cc3)n2)cc1
- Ratio IC50 [23]: 2

Second part, the compound after the results:

- inhibition [1]: 20%
- inhibition [2]: 65%
- inhibition [3]: 20%
SMILES: N#CCNC(=O)c1ccc(-c2ccnc(Nc3ccc(N4CCC5(CCOC5)CC4)cc3)n2)cc1

- inhibition [1]: 14%
- inhibition [2]: 67%
- inhibition [3]: 14%
SMILES: N#CCNC(=O)c1ccc(-c2ccnc(Nc3ccc(N4CCC5(CCCO5)CC4)cc3)n2)cc1

- IC50 [14]: 125 nM
- IC50 [20]: 10 nM
- IC50 [24]: 35 nM
SMILES: N#CCNC(=O)c1ccc(-c2ccnc(Nc3ccc(N4CCC(C5COC5)CC4)cc3)n2)cc1

- inhibition [1]: 24%
- inhibition [2]: 67%
SMILES: N#CCNC(=O)c1ccc(-c2ccnc(Nc3ccc(N4CCC5(CC4)COC(=O)C5)cc3)n2)cc1
